Earlier results, collected in patent US20020192671A1, “Method and system for predicting the biological activity, including toxicology and toxicity, of substances” (priority 2001, published 2002).

| Structure (SMILES) | toxic effect at high non-therapeutic doses | effect on P450 4F levels (P450 4F) | effect of chronic treatment in rodents (rodents) | effect on cytochrome P450 4A levels (cytochrome P450 4A) |
| --- | --- | --- | --- | --- |
| CC(=O)Nc1ccc(O)cc1 [APAP, acetaminophen] | hepatic and renal failure |  |  |  |
| CCOC(=O)C(C)(C)Oc1ccc(Cl)cc1 [Clofibrate] |  | reduce the levels of P450 4F | hepatomegaly, an increase in hepatic peroxisomes | increase levels of cytochrome P450 4A |
